{"source": "patent US9487596B2", "about": "“Compound isolated from quamoclit, and composition for preventing or treating diabetes containing the compound as an active ingredient” (NANOBIOTECH CO., LTD., priority 2011, dated 2016)", "key": {"VEGF protein": {"system": "VEGF protein", "assay": "VEGF protein expression in ARPE 19 cells induced with 30 mM glucose (VEGF ELISA)", "assay_type": "cell-based, human", "conditions": "0.5 μg/ml, 72 hours, FIG. 5", "method": "In order to confirm inhibition activity of VEGF of the novel compound isolated from the Quamoclit angulata prepared in Example 1 above, ARPE 19 cell line which is human retinal pigment epithelium cell line was treated with the novel compound and expression of the VEGF protein inducting diabetic complications such as diabetic retinopathy, and the like was confirmed.\n10% fetal bovine serum (FBS) was added to DMEM; F12 medium and ARPE 19 cell line (ATCC, USA) was cultured therein. In order to induce expression of the VEGF protein from ARPE 19 cell line, the cells were smeared on 60Φ plate at a concentration of 1×10^5 cell/plate, 10% FBS serum-free was added to DMEM low glucose medium, followed by culturing for 24 hours, the culture fluid was changed into a culture fluid containing 30 mM glucose in the DMEM low glucose medium, and the novel compound KRIBB-BH-P was added thereto so that a final concentration thereof was 0.5 μg/ml, followed by culturing for 72 hours in order to confirm production of VEGF protein. […]\nThe culture fluid of ARPE 19 cell cultured by the above-described method was obtained and an amount of the secreted VEGF was measured using VEGF ELISA kit (R&D, UK)."}, "diabetic mouse [1]": {"system": "diabetic mouse", "assay": "Insulin resistance (HOMA-IR) and β-cell functionality (HOMA-beta) in diabetic mice", "assay_type": "in vivo", "conditions": "FIG. 14", "method": "Insulin and blood glucose of the diabetic mouse group raised under conditions of Example 7 above were measured by the fasting blood test or glucose tolerance test and insulin sensitivity index thereof was calculated.\nInsulin resistance was evaluated using the insulin sensitivity index which is homeostasis assessment (HOMA)-IR and β-cell Functionality was evaluated by HOMA-beta.\nHOMA-IR=(Fasting insulin (μIU/mL)×Fasting glucose ([…]))/22.5 HOMA-beta=20×Fasting insulin (U/mL)/Fasting glucose (mmol/L)−3.5"}, "TNF-α": {"system": "TNF-α", "assay": "TNF-α concentration in diabetic mice", "assay_type": "in vivo, mouse", "conditions": "FIG. 19", "method": "TNF-α concentration of the diabetic mouse group raised under conditions of Example 7 above was measured based on the above-description."}, "Min 6 cell line": {"system": "Min 6 cell line", "assay": "Insulin secretion in Min 6 pancreatic β cell line (insulin ELISA)", "assay_type": "cell-based, mouse", "conditions": "Min 6 cells, 25 mM glucose, 0.5 ng/ml, 2 hours, FIG. 6", "method": "An insulin secretion acceleration activity of the novel compound KRIBB-BH-P isolated from Quamoclit angulata was confirmed in Min 6 cell line which is a mouse pancreatic β cell tumor.\n15% FBS was added to HDMEM medium and Min 6(ATCC, USA) was cultured therein. In order to induce insulin expression from Min 6 cell line, the cells were smeared on a 96 well plate at a concentration of 1×10^4 cell/plate, 15% FBS serum-free was added to DMEM high glucose medium, followed by culturing for 72 hours, washing with PBS buffer solution, and then culturing in HBSS buffer solution for 2 hours, the culture fluid was changed into HBSS buffer solution having 25 mM glucose added thereto, and the novel compound KRIBB-BH-P was added thereto so that a final concentration thereof was 0.5 ng/ml, followed by culturing for 2 hours in order to confirm whether or not the insulin expression was promoted. Here, an amount of insulin expression in cell in which insulin expression was not induced by treatment with 5.5 mM glucose was set as a reference point which is a control group, and a positive control group was prepared by adding amino-guanidine of 1 μM, acarbose of 1 μM, glimepiride of 1 mM. […] The culture fluid of Min 6 cell cultured by the above-described method was obtained and an amount of the secreted insulin was measured using Insulin ELISA kit (R&D, UK)."}, "adiponectin": {"system": "adiponectin", "assay": "Adiponectin concentration in blood of diabetic mice (ELISA)", "assay_type": "in vivo, mouse", "conditions": "FIG. 15", "description": "It has consistently proven that adiponectin is secreted from fat cells and abundantly present in blood, is decreased in an obesity patient or type 2 diabetic. In addition, low hypoadiponectinemia is on the rise as a new risk factor of artherosclerotic disease, and a concentration of adiponectin in diabetic patients, in particular, patients accompanying macrovascular complications is decreased. That is, adiponectin has an anti-obesity action, an anti-diabetic action, anti-atherogenic action and an inhibition action of active oxygen generation. A concentration of adiponectin in the blood of the diabetic mouse group raised under conditions of Example 7 was measured using ELISA kit (R&D, USA)."}, "C57BL/6J mouse": {"system": "C57BL/6J mouse", "assay": "Oral glucose tolerance test in high-fat diet mice", "assay_type": "in vivo", "conditions": "oral dosing 1, 2, 4, 8, 16, 24 hours before glucose 2 g/kg, result for the 24 hours group, FIG. 9", "method": "In order to conduct an oral glucose tolerance test, a 5-week-old mouse (Male C57BL/6J, 19 g, Koatech, Pyeongtaek-si, Gyeonggi-do, Korea) was purchased and adopted under predetermined temperature (25° C.) and humidity (50%) for 1 week and used in an experiment. A general diet group having a general feed as a food and a high-fat diet group having a high-fat feed as a feed were prepared, wherein each group had five mice, and raised for 2 weeks. At the time of two weeks after feeding with high-fat diet, the experimental mice were fasting for 16 hours, and the fasting blood glucose was measured, and then, the sample was orally administered at 1, 2, 4, 8, 16, and 24 hours before measuring the blood glucose, followed by oral administration of glucose 2 g/kg (body weight) and blood glucose thereof was measured every 30 minutes."}, "glucagon": {"system": "glucagon", "assay": "Plasma glucagon concentration in diabetic mice", "assay_type": "in vivo, mouse", "description": "In type 2 diabetic patients, blood glucose is increased, insulin secretion by glucose intake is delayed, and glucagon is increased. It is generally known that decrease in a ratio of insulin to plasma glucagon is associated with deterioration of diabetes. Therefore, a concentration of glucagon of the diabetic mouse group raised under conditions of Example 7 above was confirmed."}, "diabetic mouse [2]": {"system": "diabetic mouse", "assay": "Anti-cataract effect: eye lens turbidity in diabetic mice", "assay_type": "in vivo", "conditions": "FIG. 20", "method": "Eye lens was isolated from eyeball extracted from the diabetic mouse group raised under conditions of Example 7 above and moved to a well plate and then a photograph thereof was taken by LAS 3000 image analysis system. Turbidity of the eye lens was measured by analyzing the photograph using LAS 300 image analysis program."}, "DPP-IV": {"molecular_target": "T1, DPP-IV (Mus musculus, UniProt P28843)", "T1 construct": "from tissue", "T1 sequence (P28843 whole entry)": "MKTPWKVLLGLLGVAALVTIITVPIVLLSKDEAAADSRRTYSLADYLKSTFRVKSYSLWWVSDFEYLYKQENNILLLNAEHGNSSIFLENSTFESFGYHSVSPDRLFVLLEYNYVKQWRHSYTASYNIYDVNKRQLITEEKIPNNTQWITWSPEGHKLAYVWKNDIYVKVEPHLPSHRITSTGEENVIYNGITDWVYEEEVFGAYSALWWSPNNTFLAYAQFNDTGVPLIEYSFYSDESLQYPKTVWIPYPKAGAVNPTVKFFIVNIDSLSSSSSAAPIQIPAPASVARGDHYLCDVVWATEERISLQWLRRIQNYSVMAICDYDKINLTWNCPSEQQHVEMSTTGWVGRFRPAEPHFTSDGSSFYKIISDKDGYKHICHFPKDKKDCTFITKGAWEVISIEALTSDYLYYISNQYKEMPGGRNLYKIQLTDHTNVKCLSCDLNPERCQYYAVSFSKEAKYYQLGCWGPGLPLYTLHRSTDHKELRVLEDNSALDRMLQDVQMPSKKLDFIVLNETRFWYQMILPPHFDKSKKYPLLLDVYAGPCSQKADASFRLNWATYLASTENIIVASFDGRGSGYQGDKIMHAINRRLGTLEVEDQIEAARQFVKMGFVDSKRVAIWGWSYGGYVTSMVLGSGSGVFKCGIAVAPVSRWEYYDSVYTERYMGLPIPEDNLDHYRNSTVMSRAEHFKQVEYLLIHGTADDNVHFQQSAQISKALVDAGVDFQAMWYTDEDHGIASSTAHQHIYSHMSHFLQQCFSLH", "assay": "DPP-IV activity in diabetic mice", "assay_type": "in vivo", "conditions": "FIG. 17", "description": "Both of GIP and GLP-1 are rapidly decomposed by dipeptidyl peptidase (DPP)-4 which is a series of serine protease. DPP-4 inhibition efficacy of the diabetic mouse group raised under conditions of Example 7 above was confirmed based on the above description."}, "diabetic mouse [3]": {"system": "diabetic mouse", "assay": "Glycated hemoglobin (HbAlc) in diabetic mice (ELISA)", "assay_type": "in vivo", "conditions": "oral 10 mg/kg, compared to the normal mouse control group (so in the source), FIG. 10", "method": "(§1) A normal mouse control group, a diabetic mouse control group, a diabetic mouse group treated with drugs (glimepiride and acarbose), and a diabetic mouse group treated with Quamoclit angulata-derived novel compound were prepared, wherein each group had five mice, and each group treated with the combination administration of the Quamoclit angulata-derived novel compound was treated by oral administration at each concentration of 0.1 mg/kg, 1 mg/kg and 10 mg/kg and raised for 12 weeks. A change in blood glucose in mice of each group was measured every 2 weeks and urine was collected every 6 weeks to measure a urinary protein concentration, and mice was raised for 12 weeks and blood thereof was collected to measure glycated hemoglobin concentration.\nIn order to decrease complications developed in patients receiving diabetes treatment, it is important to maintain blood glucose at an appropriate level. Since blood glucose measured at one time point may be changed by various factors, the most widely used test with a purpose of identifying a long-term change in regulation of blood glucose is glycated hemoglobin (HbAlc). […] Since the glycated hemoglobin reflects an average blood glucose value for 2 to 4 months, it is useful for identify a degree of regulation of blood glucose in a long term. […]"}, "diabetic mouse [4]": {"system": "diabetic mouse", "assay": "Liver toxicity test: alanine transaminase in blood of diabetic mice", "assay_type": "in vivo", "conditions": "oral 0.1-10 mg/kg, 12 weeks, FIG. 12", "method": "A 6-week-old mouse and a 6-week-old diabetic mouse which are the same as Example 5 above were adapted under predetermined temperature (25° C.) and humidity (50%) for 1 week and used in a liver toxicity test.\nA normal mouse control group, a diabetic mouse control group, and each diabetic mouse group treated with Quamoclit angulata-derived novel compound by oral administration at each concentration of 0.1 mg/kg, 1 mg/kg and 10 mg/kg were prepared, wherein each group had five mice, and raised for 12 week. After raising the mice for 12 weeks, blood thereof was collected and a concentration of alanine transaminase was measured.\nThe alanine transaminase, which is a metabolic enzyme of amino acid, is used in a representative test for diagnosis and result observation.\nIn order to confirm effects of the Quamoclit angulata-derived novel compound on liver, a normal mouse control group, a diabetic mouse control group and each group treated with Quamoclit angulata-derived novel compound by oral administration at each concentration of 0.1 mg/kg, 1 mg/kg and 10 mg/kg were raised for 12 weeks and blood thereof were collected and a change in alanine transaminase measured using ELISA kit (Cusabio biotech, Japan)."}, "diabetic model mouse": {"system": "diabetic model mouse", "assay": "Creatinine in blood and urine of diabetic mice (ELISA)", "assay_type": "in vivo", "conditions": "oral, 12 weeks, FIG. 11", "description": "Diabetic patients are common to have both of kidney and heart complication. Diabetes may damage kidney which filters and excretes our body's waste. Through creatinine test, a concentration of creatinine in a blood may be measured and a function of kidney may be evaluated creatinine, which is a product obtained by dehydrating creatine produced after protein is used in muscle, is present in a blood with an extremely small amount. In the case in which a function of the kidney is deteriorated, creatinine may not be excreted. Urine and blood from diabetic model mouse of each group treated by oral administration for 12 weeks were collected, and creatinine was measured using ELISA kit (R&D, USA)."}, "alpha-glucosidase": {"system": "alpha-glucosidase", "assay": "Alpha-glucosidase activity in diabetic mice", "assay_type": "in vivo, mouse", "conditions": "FIG. 18", "method": "Activity of alpha-glucosidase of the diabetic mouse group raised under conditions of Example 7 above was measured based on the above-description."}, "diabetic mouse [5]": {"system": "diabetic mouse", "assay": "Liver function: bilirubin in blood of diabetic mice (ELISA)", "assay_type": "in vivo", "conditions": "blood after 12 weeks, FIG. 13", "method": "In order to confirm whether or not liver function was normal in the group treated with Quamoclit angulata-derived novel compound, bilirubin value was measured using ELISA kit (Cusabio biotech, Japan) using blood collected in Example above. […] Therefore, it may be appreciated that the composition of the present invention is safe composition not causing abnormal liver function."}, "C57BL/Ks DB/DB mouse": {"system": "C57BL/Ks DB/DB mouse", "assay": "Blood glucose in diabetic mice", "assay_type": "in vivo", "conditions": "oral, each of 0.1 mg/kg, 1 mg/kg and 10 mg/kg, 12 weeks, FIG. 8", "method": "Normal mice and diabetic mice were treated with the Quamoclit angulata-derived novel compound and change in diabetic indexes including blood glucose, glycated hemoglobin, and urinary protein was confirmed.\n6-week-old mice (Male C57BL/6J mouse, 20 g, Central Lab. Animal Inc., Seoul) and 6-week-old diabetic mice (Male C57BL/Ks DB/DB mouse, 20 g, Central Lab. Animal Inc., Seoul) were purchased and adopted under predetermined temperature (25° C.) and humidity (50%) for 1 week and used in an experiment.\nas §1"}, "lens": {"system": "lens", "assay": "Lens culture experiment, xylose-induced lens opacity", "conditions": "mouse lens, 20 mM xylose, compared to positive control quercetin, FIG. 7", "method": "In the case of diabetic, a cataract is developed at an early stage, becomes rapidly worse and eyesight is rapidly deteriorated. Diabetes promotes opaque crystalline lens. Accordingly, diabetic cataract inhibition efficiency was examined by a lens culture experiment.\nEyes of a mouse was extracted and put into an iodine solution to be disinfected and then only the lens was extracted. The extracted eyes were put into M199 medium and cultured in a cell incubator. 20 mM xylose was added to the medium to induce lens opacity and the induced lens opacity was measured using CCD camera."}}, "data": [{"compound": "CCCCCC(CCCC(O)CC(=O)O)OC1OC(COC2OC(C)C(OC3CC(O)C(O)C(C)O3)CC2O)C(O)C(O)C1OC1CC(O)C(OC2CC(O)C(OC3CC(O)C(OC)C(C)O3)C(C)O2)C(C)O1", "note": "(stereo not shown) [KRIBB-BH-P]", "values": [{"measurement": "VEGF expression", "setting": "VEGF protein", "value": "decreased"}, {"measurement": "insulin resistance (HOMA-IR)", "setting": "diabetic mouse [1]", "value": "remarkably excellent result"}, {"measurement": "β-cell functionality (HOMA-beta)", "setting": "diabetic mouse [1]", "value": "remarkably excellent result"}, {"measurement": "TNF-α concentration", "setting": "TNF-α", "value": "decreased"}, {"measurement": "insulin expression", "setting": "Min 6 cell line", "value": "increased"}, {"measurement": "expression of adiponectin", "setting": "adiponectin", "value": "increased"}, {"measurement": "efficacy in oral glucose tolerance test (blood glucose)", "setting": "C57BL/6J mouse", "value": "highest efficacy"}, {"measurement": "concentration ratio of insulin to glucagon", "setting": "glucagon; compared to the diabetic mouse control group", "value": "remarkably increased"}, {"measurement": "concentration of plasma glucagon", "setting": "glucagon; lower than that of the group treated with the drugs, FIG. 16", "value": "remarkably decreased"}, {"measurement": "turbidity of the eye lens", "setting": "diabetic mouse [2]", "value": "decreased"}, {"measurement": "activity of DPP IV", "setting": "DPP-IV", "value": "inhibited"}, {"measurement": "glycated hemoglobin value", "setting": "diabetic mouse [3]", "value": "remarkably decreased"}, {"measurement": "liver toxicity", "setting": "diabetic mouse [4]", "value": "no liver toxicity"}, {"measurement": "concentration of creatinine in the blood", "setting": "diabetic model mouse", "value": "decreased"}, {"measurement": "concentration of creatinine in the urine", "setting": "diabetic model mouse", "value": "increased"}, {"measurement": "activity of alpha-glucosidase", "setting": "alpha-glucosidase", "value": "inhibited"}, {"measurement": "bilirubin value", "setting": "diabetic mouse [5]", "value": "included in a normal range"}, {"measurement": "blood glucose", "setting": "C57BL/Ks DB/DB mouse", "value": "remarkably decreased"}, {"measurement": "lens opacity", "setting": "lens", "value": "more inhibited"}]}]}
